Data published in patent publication US12187709B2 (Genentech, Inc., priority 2021, dated 2025).

Experiments:
Cbl-b = Cbl-b (Homo sapiens (Human), UniProt Q13191); test: Cbl-b LCK Ub TR-FRET assay (Cbl-b Lck HTRF); assay type: biochemical; settings: for IC50: Cbl-b LCK Ub TR-FRET, Example 121; for (fold-selectivity) Cbl-b and C-Cbl Selectivity: ratio C-cbl Lck HTRF IC50 / Cbl-b Lck HTRF IC50
Procedure, shortened: (§1)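 Detection reagents added, brief spin, 20 min RT. IC50 fit normalized to no-LCK (low) and DMSO (high) controls.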

c-Cbl = c-Cbl (Homo sapiens (Human), UniProt P22681); test: C-Cbl LCK Ub TR-FRET assay (C-cbl Lck HTRF); assay type: biochemical
Procedure, shortened: as §1

[1] = target: Human Cbl-b (residues 40-426) (Homo sapiens (Human), UniProt Q13191); test: Cbl-b SPR assay; assay type: binding; settings: for Fold of selectivity: C-cbl SPR Kd vs Cbl-b SPR Kd; for Kd: SPR, 20° C.
Procedure, shortened: (§2)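 Captured protein (1300-1500 RU for both isoforms) was probed in multi-cycle kinetics with 6 concentrations in 2-fold dilution, 60 s contact, 40 μl/min, dissociation 120-1200 s, double-referenced. Kinetic and affinity parameters came from a 1:1 binding fit. For slow off-rates, kd was set independently by a chaser-based method.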

c-Cbl (residues 47-435) = c-Cbl (residues 47-435) (Homo sapiens (Human), UniProt P22681); test: c-Cbl SPR assay; assay type: binding; settings: 20° C.
Procedure, shortened: as §2

Chain of Cbl-b (Q13191 40-426): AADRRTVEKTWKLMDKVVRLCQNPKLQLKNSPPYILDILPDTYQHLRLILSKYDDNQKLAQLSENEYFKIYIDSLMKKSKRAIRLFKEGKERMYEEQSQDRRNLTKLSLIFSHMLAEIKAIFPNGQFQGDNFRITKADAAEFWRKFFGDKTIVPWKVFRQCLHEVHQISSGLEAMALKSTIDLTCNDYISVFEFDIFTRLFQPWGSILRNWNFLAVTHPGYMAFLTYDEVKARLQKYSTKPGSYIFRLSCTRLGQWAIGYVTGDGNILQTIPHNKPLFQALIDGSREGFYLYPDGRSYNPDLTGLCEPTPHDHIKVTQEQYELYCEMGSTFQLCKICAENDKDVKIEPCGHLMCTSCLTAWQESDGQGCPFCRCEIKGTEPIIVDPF
Chain of Human Cbl-b (residues 40-426) (Q13191 40-426): as above
Chain of c-Cbl (P22681 47-435): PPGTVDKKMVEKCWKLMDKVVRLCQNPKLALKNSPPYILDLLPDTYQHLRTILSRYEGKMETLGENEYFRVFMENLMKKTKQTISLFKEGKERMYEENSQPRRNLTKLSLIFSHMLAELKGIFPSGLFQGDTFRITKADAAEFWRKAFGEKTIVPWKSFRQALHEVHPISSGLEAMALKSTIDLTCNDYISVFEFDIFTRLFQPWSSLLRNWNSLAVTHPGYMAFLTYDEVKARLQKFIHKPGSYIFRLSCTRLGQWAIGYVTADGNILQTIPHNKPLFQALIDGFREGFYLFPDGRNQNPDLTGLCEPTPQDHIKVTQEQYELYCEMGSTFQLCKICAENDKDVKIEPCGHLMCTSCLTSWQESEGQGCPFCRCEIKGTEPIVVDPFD
Chain of c-Cbl (residues 47-435) (P22681 47-435): as above

Structure (SMILES) | IC50 (Cbl-b) | (fold-selectivity) Cbl-b and C-Cbl Selectivity (Cbl-b) | IC50 (c-Cbl) | Fold of selectivity [1] | Kd [1] | Kd (c-Cbl (residues 47-435))
Cn1cnnc1[C@]1(c2cccc(N3Cc4c(Cl)cc(CNC5(C)CCC5)cc4C3=O)c2)C[C@H](Cl)C1 [Compound 452, 4-chloro-2-(3-((1s,3s)-3-chloro-1-(4-methyl-4H-1,2,4-triazol-3-yl)cyclobutyl)phenyl)-6-(((1-methylcyclobutyl)amino)methyl)isoindolin-1-one] | 5.5 nM | 1.0x | 5.6 nM | 3.3× | 0.7 nM | 2.4 nM
Cn1cnnc1[C@H](c1cccc(N2Cc3c(cc(CNC4(C)CCC4)cc3C(F)F)C2=O)c1)C1CC(F)C1 (stereo partly drawn) [Compound 461, 4-(difluoromethyl)-2-(3-((S)-((1s,3R)-3-fluorocyclobutyl)(4-methyl-4H-1,2,4-triazol-3-yl)methyl)phenyl)-6-(((1-methylcyclobutyl)amino)methyl)isoindolin-1-one] | 360 nM | 8.8 x | 3200 nM | 18× | 190 nM | 3400 nM
Cn1cnnc1C(c1cccc(N2Cc3c(cc(CNC4(C)CCC4)cc3C(F)(F)F)C2=O)c1)C1(F)CSC1 (stereo not drawn) [Compound 462, 2-(3-((3-fluorothietan-3-yl)(4-methyl-4H-1,2,4-triazol-3-yl)methyl)phenyl)-6-(((1-methylcyclobutyl)amino)methyl)-4-(trifluoromethyl)isoindolin-1-one] | 13 nM | 1.9x | 24 nM | 10× | 2 nM | 21 nM
Cn1cnnc1[C@@H](c1cccc(N2Cc3c(cc(CNCC(C)(C)F)cc3C(F)(F)F)C2=O)c1)C1COC1 [Compound 463, (R)-6-(((2-fluoro-2-methylpropyl)amino)methyl)-2-(3-((4-methyl-4H-1,2,4-triazol-3-yl)(oxetan-3-yl)methyl)phenyl)-4-(trifluoromethyl)isoindolin-1-one] | 6.5 nM | 1.9x | 12 nM | 5.2× | 3.2 nM | 17 nM
CO[C@H]1C[C@](c2cccc(N3Cc4c(cc(CN[C@@H](C)C5CCC5)cc4C(F)(F)F)C3=O)c2)(c2nncn2C)C1 [Compound 470, 6-((((S)-1-cyclobutylethyl)amino)methyl)-2-(3-((1r,3S)-3-methoxy-1-(4-methyl-4H-1,2,4-triazol-3-yl)cyclobutyl)phenyl)-4-(trifluoromethyl)isoindolin-1-one] | 4.4 nM | 1.0x | 4.5 nM | 2.9× | 0.35 nM | 1.5 nM
CO[C@H]1C[C@](c2cccc(N3Cc4c(cc(CNC5CC5)cc4C(F)(F)F)C3=O)c2)(c2nncn2C)C1 [Compound 477, 6-((cyclopropylamino)methyl)-2-(3-((1r,3r)-3-methoxy-1-(4-methyl-4H-1,2,4-triazol-3-yl)cyclobutyl)phenyl)-4-(trifluoromethyl)isoindolin-1-one] | 17 nM | 5.6x | 93 nM | 11× | 11 nM | 130 nM
CO[C@H]1C[C@](c2cccc(N3Cc4c(cc(CN5CC(C)(O)C5)cc4C(F)(F)F)C3=O)c2)(c2nncn2C)C1 [Compound 478, 6-((3-hydroxy-3-methylazetidin-1-yl)methyl)-2-(3-((1r,3r)-3-methoxy-1-(4-methyl-4H-1,2,4-triazol-3-yl)cyclobutyl)phenyl)-4-(trifluoromethyl)isoindolin-1-one] | 130 nM | 6.4x | 840 nM | 8.7× | 120 nM | 1100 nM
CO[C@H]1C[C@](c2cccc(N3Cc4c(cc(CN5CCC5)cc4C(F)(F)F)C3=O)c2)(c2nncn2C)C1 [Compound 480, 6-(azetidin-1-ylmethyl)-2-(3-((1r,3r)-3-methoxy-1-(4-methyl-4H-1,2,4-triazol-3-yl)cyclobutyl)phenyl)-4-(trifluoromethyl)isoindolin-1-one] | 34 nM | 7.9x | 280 nM | 11× | 45 nM | 490 nM
CO[C@H]1C[C@](c2cccc(N3Cc4c(cc(CNCC(C)(C)C)cc4C(F)(F)F)C3=O)c2)(c2nncn2C)C1 [Compound 481, 2-(3-((1r,3r)-3-methoxy-1-(4-methyl-4H-1,2,4-triazol-3-yl)cyclobutyl)phenyl)-6-((neopentylamino)methyl)-4-(trifluoromethyl)isoindolin-1-one] | 6.2 nM | 4.0x | 25 nM | 18× | 1.5 nM | 27 nM

Further molecules by falling IC50 (Cbl-b), results first:

IC50 (Cbl-b) | (fold-selectivity) Cbl-b and C-Cbl Selectivity (Cbl-b) | IC50 (c-Cbl) | Fold of selectivity [1] | Kd [1] | Kd (c-Cbl (residues 47-435)) | Structure (SMILES)
82 nM | 7.1x | 570 nM | 11× | 95 nM | 1100 nM | CO[C@H]1C[C@](c2cccc(N3Cc4c(cc(CNC5COC5)cc4C(F)(F)F)C3=O)c2)(c2nncn2C)C1 [Compound 476, 2-(3-((1r,3r)-3-methoxy-1-(4-methyl-4H-1,2,4-triazol-3-yl)cyclobutyl)phenyl)-6-((oxetan-3-ylamino)methyl)-4-(trifluoromethyl)isoindolin-1-one]
22 nM | 4.0x | 86 nM | 7.6× | 16 nM | 120 nM | CO[C@H]1C[C@](c2cccc(N3Cc4c(cc(CN[C@H](C)C5CCC5)cc4C(F)(F)F)C3=O)c2)(c2nncn2C)C1 [Compound 467]
14 nM | 3.6x | 50 nM | 11× | 7.6 nM | 85 nM | CO[C@H]1C[C@](c2cccc(N3Cc4c(cc(CNCC5(O)CC5)cc4C(F)(F)F)C3=O)c2)(c2nncn2C)C1 [Compound 473, 6-((((1-hydroxycyclopropyl)methyl)amino)methyl)-2-(3-((1r,3r)-3-methoxy-1-(4-methyl-4H-1,2,4-triazol-3-yl)cyclobutyl)phenyl)-4-(trifluoromethyl)isoindolin-1-one]
11 nM | 4.8x | 51 nM | 14× | 4.8 nM | 68 nM | CO[C@H]1C[C@](c2cccc(N3Cc4c(cc(CNCC5(C)CC5)cc4C(F)(F)F)C3=O)c2)(c2nncn2C)C1 [Compound 474, 2-(3-((1r,3r)-3-methoxy-1-(4-methyl-4H-1,2,4-triazol-3-yl)cyclobutyl)phenyl)-6-((((1-methylcyclopropyl)methyl)amino)methyl)-4-(trifluoromethyl)isoindolin-1-one]
8.7 nM | 2.3x | 20 nM | 11× | 1.4 nM | 15 nM | CC[C@H]1C[C@](c2cccc(N3Cc4c(cc(CNC5(C)CCC5)cc4C(F)(F)F)C3=O)c2)(c2nncn2C)C1 [Compound 455, 2-(3-((1s,3r)-3-ethyl-1-(4-methyl-4H-1,2,4-triazol-3-yl)cyclobutyl)phenyl)-6-(((1-methylcyclobutyl)amino)methyl)-4-(trifluoromethyl)isoindolin-1-one]
8.7 nM | 3.3x | 23 nM | 13× | 3.6 nM | 45 nM | CO[C@H]1C[C@](c2cccc(N3Cc4c(cc(CNC5(C)CC5)cc4C(F)(F)F)C3=O)c2)(c2nncn2C)C1 [Compound 475, 2-(3-((1r,3r)-3-methoxy-1-(4-methyl-4H-1,2,4-triazol-3-yl)cyclobutyl)phenyl)-6-(((1-methylcyclopropyl)amino)methyl)-4-(trifluoromethyl)isoindolin-1-one]
8.3 nM | 4.3x | 36 nM | 11× | 8.3 nM | 91 nM | CO[C@H]1C[C@](c2cccc(N3Cc4c(cc(CNC5(C)CC(F)(F)C5)cc4C(F)(F)F)C3=O)c2)(c2nncn2C)C1 [Compound 471, 6-(((3,3-difluoro-1-methylcyclobutyl)amino)methyl)-2-(3-((1r,3r)-3-methoxy-1-(4-methyl-4H-1,2,4-triazol-3-yl)cyclobutyl)phenyl)-4-(trifluoromethyl)isoindolin-1-one]
6.6 nM | 1.7x | 11 nM | 2.8× | 1.7 nM | 4.8 nM | Cn1cnnc1C1(c2cccc(N3Cc4c(cc(C(CF)NC5(C)CCC5)cc4C(F)(F)F)C3=O)c2)CCC1 (stereo not drawn) [Compound 453, 6-(2-fluoro-1-((1-methylcyclobutyl)amino)ethyl)-2-(3-(1-(4-methyl-4H-1,2,4-triazol-3-yl)cyclobutyl)phenyl)-4-(trifluoromethyl)isoindolin-1-one]
6.5 nM | 2.4x | 16 nM | 11× | 0.85 nM | 9.2 nM | CC[C@H]1C[C@@](c2cccc(N3Cc4c(cc(CNC5(C)CCC5)cc4C(F)(F)F)C3=O)c2)(c2nncn2C)C1 [Compound 454, 2-(3-((1r,3s)-3-ethyl-1-(4-methyl-4H-1,2,4-triazol-3-yl)cyclobutyl)phenyl)-6-(((1-methylcyclobutyl)amino)methyl)-4-(trifluoromethyl)isoindolin-1-one]
